Results as given in the supplement of paper PMC10307832.

Compound: CN(C)C/C=C/C(=O)Nc1cc2c(Nc3ccc(F)c(Cl)c3)ncnc2cc1O[C@H]1CCOC1 [Afatinib] + CC(C)C[C@H](NC(=O)[C@H](Cc1ccccc1)NC(=O)c1cnccn1)B(O)O [Bortezomib] (partner 0.002 µM)
Test: relative viability (nuclei count vs DMSO), 5 days (fraction); higher = more cells survive
In short: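 Lung cancer cell lines, seeded in 1536-well plates, were treated the following day by pin tool with a single drug or with five library-drug doses (not always all listed) in √10 steps on top of a fixed anchor-drug dose. Cells were fixed and nuclei stained in one step after 5 days, and nuclei were counted. Relative viability is the nuclei count for treated wells divided by that for vehicle wells, reported as medians of duplicate plates.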

Cell Line	relative viability (first compound 0.005 µM)	relative viability (first compound 0.01581 µM)	relative viability (first compound 0.05 µM)	relative viability (first compound 0.1581 µM)	relative viability (first compound 0.5 µM)
H3255	0.252	0.194	0.221	0.184	0.231
EPLC-272H	0.879	0.88	0.905	0.78	0.861
PC-3 [JPC-3]	0.516	0.351	0.315	0.406	0.303
EKVX	0.811	0.655	0.468	0.308	0.199
ChaGo-K-1	1.18	0.92	0.8	0.924	1.07
NCI-H23	0.951	0.948	0.995	0.901	0.904
EMC-BAC-2	1.03	1.05	1	0.927	1.03
LOU-NH91	0.465	0.416	0.48	0.519	0.502
LU99A	1.19	1.07	1.08	1.08	1.02
NCI-H460	1.34	1.1	1.09	1.1	0.997
201T	1.09	0.921	1.02	1.07	1.13
NCI-H2405	1	0.953	0.975	0.931	1.01
NCI-H1703	0.414	0.299	0.343	0.288	0.281
NCI-H1755	0.995	0.925	0.927	0.934	1.03
NCI-H2087	1.02	0.756	0.867	0.8	0.795
NCI-H2228	1.19	0.812	0.984	–	0.901
NCI-H727	0.85	0.732	0.825	0.863	0.804
NCI-H650	1.07	0.802	0.957	0.949	0.597
NCI-H520	0.712	0.634	0.748	0.579	0.614
EBC-1	0.594	0.59	0.562	0.507	0.705
NCI-H661	0.877	0.751	0.662	0.444	0.415
NCI-H1299	0.983	0.978	1.12	1.02	1.04
NCI-H1993	0.891	0.633	0.678	0.692	0.706

Cell Line	relative viability (first compound 0.005 µM)	relative viability (first compound 0.01581 µM)	relative viability (first compound 0.05 µM)	relative viability (first compound 0.1581 µM)	relative viability (first compound 0.5 µM)
NCI-H838	0.869	0.958	1.01	0.667	1.05
NCI-H1437	0.941	0.52	0.446	0.496	0.554
LCLC-103H	1.01	1.09	1.05	0.929	1.12
NCI-H441	0.59	0.642	0.864	0.632	0.313
SK-LU-1	1.07	1.28	1.33	1.28	1.09
BEN	0.918	0.651	0.882	0.957	0.905
LC-2-ad	1.01	1.03	1.06	0.991	1.19
COR-L23	1.1	1.04	1.11	1.03	0.988
NCI-H1650	0.222	–	0.204	0.241	0.207
RERF-LC-KJ	1.01	1.16	0.901	0.818	0.793
NCI-H1915	0.994	1	0.938	1	0.952
NCI-H596	1.15	1.18	1.11	0.766	1.01
IA-LM	0.929	0.719	0.796	0.828	0.825
NCI-H2009	1.09	1.01	0.991	1	1.03
NCI-H2126	1.11	1.04	1.01	0.984	0.852
LXF-289	1.04	0.906	0.947	0.905	0.936
NCI-H1563	0.882	0.774	0.919	0.694	0.759
HCC-44	1.04	0.91	0.891	0.903	1.01
PC-14	0.303	0.256	0.268	0.222	0.249
HOP-62	0.69	0.723	0.731	0.915	0.724
NCI-H1666	0.712	0.758	0.567	–	0.8
NCI-H1355	1.26	1.16	1.29	1.03	1.02
HCC-827	0.704	0.25	0.299	0.316	0.342

Cell Line	relative viability (first compound 0.005 µM)	relative viability (first compound 0.01581 µM)	relative viability (first compound 0.05 µM)	relative viability (first compound 0.1581 µM)	relative viability (first compound 0.5 µM)
HARA	1.02	0.763	0.683	0.836	0.754
HCC-366	1.1	1.07	1.08	0.972	1.06
NCI-H322M	0.721	1.03	0.663	0.563	0.512
NCI-H2347	1.06	0.919	0.81	0.865	0.728
NCI-H1975	0.358	0.345	0.309	0.171	0.189
UMC-11	0.998	0.735	0.667	0.669	0.777
ABC-1	0.32	0.342	0.349	0.271	0.304
A-427	0.981	1.05	1	1.05	1.04
LCLC-97TM1	0.733	0.646	0.648	0.463	0.619
HCC-15	1.04	1.09	1.04	1.04	1.03
NCI-H647	0.921	0.808	1.08	1.11	1
SW 1573	1.12	1.07	1.05	0.98	1.1
NCI-H1651	1.08	0.912	0.926	1.02	0.884
NCI-H1792	0.841	0.759	0.975	0.906	0.938
NCI-H2023	0.954	0.884	0.984	0.899	1.14
COR-L 105	0.3	0.31	0.334	0.262	0.362
NCI-H1734	1.08	0.816	0.895	0.921	0.922
NCI-H3122	1.05	1.02	1.06	0.967	1.04
CAL-12T	1.2	0.81	0.608	0.56	0.644
HCC-78	0.528	0.514	0.566	0.362	0.434
NCI-H2085	1.01	0.902	0.932	0.894	0.975
